According to ChEMBL document CHEMBL5532696, “Discovery of new tricyclic spiroindole derivatives as potent P-glycoprotein inhibitors for reversing multidrug resistance enabled by a synthetic methodology-based library” (RSC Med Chem, 2024):
Activity calls are given as the source filed them. The calls are words filed in the database; no cut-off is given here.

Tests used:
[1] = Reversal of vincristine resistant in human Eca-109/VCR cells assessed as reversal fold by measuring ratio of doxorubicin IC50 to doxorubicin IC50 in presence of test compound at 5 uM incubated for 48 hrs by CCK8 assay; assay type: functional
Eca-109/VCR [2] = experiment: Inhibition of colony formation in human Eca-109/VCR cells assessed as reduction in number of colonies incubated for 48 hrs in presence of vincristine by crystal violet staining based assay; assay type: functional, cell-based; conditions: dose 0-2 µM
Eca-109/VCR [3] = experiment: Induction of apoptosis in human Eca-109/VCR cells assessed as late apoptotic cells at 5 uM incubated for 48 hrs by Annexin V-FITC/DAPI staining based flow cytometry analysis (reference value: 4.31 %); assay type: functional
Eca-109/VCR [4] = experiment: Induction of apoptosis in human Eca-109/VCR cells assessed as viable cells at 1 uM incubated for 48 hrs by Annexin V-FITC/DAPI staining based flow cytometry analysis (reference value: 94.6 %); assay type: functional; conditions: read-out: Activity
Eca-109/VCR [5] = experiment: Antiproliferative activity against human Eca-109/VCR cells assessed as cell viability at 5 uM incubated for 48 hrs by CCK-8 assay (reference value: 100 +/- 1.8%); assay type: functional; conditions: read-out: Activity
Eca-109/VCR [6] = experiment: Reversal of vincristine resistance in human Eca-109/VCR cells assessed as reversal fold by measuring ratio of vincristine IC50 to vincristine IC50 in presence of test compound at 5 uM incubated for 48 hrs by CCK8 assay; assay type: functional
Eca-109/VCR [7] = experiment: Induction of apoptosis in human Eca-109/VCR cells assessed as viable cells at 1 uM incubated for 48 hrs in presence of vincristine at 50 nM by Annexin V-FITC/DAPI staining based flow cytometry analysis (reference value: 93.5 %); assay type: functional; conditions: read-out: Activity
Eca-109/VCR [8] = experiment: Induction of apoptosis in human Eca-109/VCR cells assessed as early apoptotic cells at 5 uM incubated for 48 hrs by Annexin V-FITC/DAPI staining based flow cytometry analysis (reference value: 0.97 %); assay type: functional
Eca-109/VCR [9] = experiment: Induction of apoptosis in human Eca-109/VCR cells assessed as viable cells at 5 uM incubated for 48 hrs in presence of vincristine at 50 nM by Annexin V-FITC/DAPI staining based flow cytometry analysis (reference value: 93.5 %); assay type: functional; conditions: read-out: Activity
Eca-109/VCR [10] = experiment: Induction of apoptosis in human Eca-109/VCR cells assessed as early apoptotic cells at 1 uM incubated for 48 hrs in presence of vincristine at 50 nM by Annexin V-FITC/DAPI staining based flow cytometry analysis (reference value: 1.33 %); assay type: functional
Eca-109/VCR [11] = experiment: Reversal of vincristine resistance in human Eca-109/VCR cells assessed as effect on P-gp protein expression at 5 to 10 uM incubated for 24 hrs by Western blotting analysis; assay type: functional, cell-based; conditions: dose 5-10 µM
Eca-109/VCR [12] = experiment: Antiproliferative activity against human Eca-109/VCR cells assessed as reduction in cell viability at 10 uM incubated for 48 hrs by CCK-8 assay; assay type: functional, cell-based
[13] = Reversal of vincristine resistant in human Eca-109/VCR cells assessed as reversal fold by measuring ratio of docetaxel IC50 to docetaxel IC50 in presence of test compound at 5 uM incubated for 48 hrs by CCK8 assay; assay type: functional
Eca-109/VCR [14] = experiment: Induction of apoptosis in human Eca-109/VCR cells assessed as viable cells at 5 uM incubated for 48 hrs by Annexin V-FITC/DAPI staining based flow cytometry analysis (reference value: 94.6 %); assay type: functional; conditions: read-out: Activity
Eca-109/VCR [15] = experiment: Induction of apoptosis in human Eca-109/VCR cells assessed as early apoptotic cells at 5 uM incubated for 48 hrs in presence of vincristine at 50 nM by Annexin V-FITC/DAPI staining based flow cytometry analysis (reference value: 1.33 %); assay type: functional
Eca-109/VCR [16] = experiment: Induction of apoptosis in human Eca-109/VCR cells assessed as late apoptotic cells at 1 uM incubated for 48 hrs by Annexin V-FITC/DAPI staining based flow cytometry analysis (reference value: 4.31 %); assay type: functional
Eca-109/VCR [17] = experiment: Effect on MRP1 protein expression in human Eca-109/VCR cells at 5 to 10 uM incubated for 24 hrs by Western blotting analysis; assay type: functional, cell-based; conditions: dose 5-10 µM
Eca-109/VCR [18] = experiment: Induction of apoptosis in human Eca-109/VCR cells assessed as necrotic cells at 1 uM incubated for 48 hrs in presence of vincristine at 50 nM by Annexin V-FITC/DAPI staining based flow cytometry analysis (reference value: 0.062 %); assay type: functional
Eca-109/VCR [19] = experiment: Induction of apoptosis in human Eca-109/VCR cells assessed as necrotic cells at 5 uM incubated for 48 hrs in presence of vincristine at 50 nM by Annexin V-FITC/DAPI staining based flow cytometry analysis (reference value: 0.062 %); assay type: functional
Eca-109/VCR [20] = experiment: Induction of apoptosis in human Eca-109/VCR cells assessed as necrotic cells at 1 uM incubated for 48 hrs by Annexin V-FITC/DAPI staining based flow cytometry analysis (reference value: 0.073 %); assay type: functional
Eca-109/VCR [21] = experiment: Effect on ABCG2 protein expression in human Eca-109/VCR cells at 5 to 10 uM incubated for 24 hrs by Western blotting analysis; assay type: functional, cell-based; conditions: dose 5-10 µM
Eca-109/VCR [22] = experiment: Induction of apoptosis in human Eca-109/VCR cells assessed as necrotic cells at 5 uM incubated for 48 hrs by Annexin V-FITC/DAPI staining based flow cytometry analysis (reference value: 0.073 %); assay type: functional
[23] = Reversal of vincristine resistant in human Eca-109/VCR cells assessed as reversal fold by measuring ratio of colchicine IC50 to colchicine IC50 in presence of test compound at 5 uM incubated for 48 hrs by CCK8 assay; assay type: functional
Eca-109/VCR [24] = experiment: Inhibition of colony formation in human Eca-109/VCR cells at 0 to 2 uM incubated for 48 hrs by crystal violet staining based assay; assay type: functional, cell-based; conditions: dose 0-2 µM
Eca-109/VCR [25] = experiment: Induction of apoptosis in human Eca-109/VCR cells assessed as late apoptotic cells at 5 uM incubated for 48 hrs in presence of vincristine at 50 nM by Annexin V-FITC/DAPI staining based flow cytometry analysis (reference value: 5.06 %); assay type: functional
[26] = Reversal of vincristine resistant in human Eca-109/VCR cells assessed as reversal fold by measuring ratio of lapatinib IC50 to lapatinib IC50 in presence of test compound at 5 uM incubated for 48 hrs by CCK8 assay; assay type: functional
Eca-109/VCR [27] = experiment: Induction of apoptosis in human Eca-109/VCR cells assessed as early apoptotic cells at 1 uM incubated for 48 hrs by Annexin V-FITC/DAPI staining based flow cytometry analysis (reference value: 0.97 %); assay type: functional
[28] = Reversal of vincristine resistant in human Eca-109/VCR cells assessed as reversal fold by measuring ratio of mitoxantrone IC50 to mitoxantrone IC50 in presence of test compound at 5 uM incubated for 48 hrs by CCK8 assay; assay type: functional
Eca-109/VCR [29] = experiment: Induction of apoptosis in human Eca-109/VCR cells assessed as late apoptotic cells at 1 uM incubated for 48 hrs in presence of vincristine at 50 nM by Annexin V-FITC/DAPI staining based flow cytometry analysis (reference value: 5.06 %); assay type: functional

Q: With `CN1C(=O)[C@@]2(c3cc(Cl)ccc31)[C@H](C(=O)NC(C)(C)C)[C@H]1c3ccc([N+](=O)[O-])cc3C(=O)[C@H]1[C@@H]2c1ccccc1` as the molecule, how does the “Ratio IC50” value [1] read?
A: Its value is 121.

Q: And the inhibition (Eca-109/VCR [2])?
A: Its inhibition is “Dose-Dependent Effect”.

Q: And the Activity (Eca-109/VCR [3])?
A: The Activity was 4.19%.

Q: And the viability at 1 µM (Eca-109/VCR [4])?
A: The viability at 1 µM was 93.9%.

Q: And the viability at 5 µM (Eca-109/VCR [5])?
A: Its viability at 5 µM is 98.9%.

Q: What about the “Ratio IC50” value (Eca-109/VCR [6]) of the same molecule?
A: The value was 727.2.

Q: What about the viability at 1 µM (Eca-109/VCR [7]) of the same molecule?
A: The viability at 1 µM was 91.3%.

Q: What about the Activity (Eca-109/VCR [8]) of the same molecule?
A: The Activity was 1.19%.

Q: What about the viability at 5 µM (Eca-109/VCR [9]) of the same molecule?
A: The viability at 5 µM was 77.5%.

Q: What about the Activity (Eca-109/VCR [10]) of the same molecule?
A: Its Activity is 0.99%.

Q: What about the Activity (Eca-109/VCR [11]) of the same molecule?
A: The Activity was “inactive”.

Q: And the Activity (Eca-109/VCR [12])?
A: Its Activity is “inactive”.

Q: And the “Ratio IC50” value [13]?
A: The value was 313.8.

Q: And the viability at 5 µM (Eca-109/VCR [14])?
A: The viability at 5 µM was 94.6%.

Q: What about the Activity (Eca-109/VCR [15]) of the same molecule?
A: Its Activity is 17.9%.

Q: What about the Activity (Eca-109/VCR [16]) of the same molecule?
A: The Activity was 4.73%.

Q: What about the Activity (Eca-109/VCR [17]) of the same molecule?
A: The Activity was “inactive”.

Q: What about the Activity (Eca-109/VCR [18]) of the same molecule?
A: The Activity was 0.15%.

Q: And the Activity (Eca-109/VCR [19])?
A: Its Activity is 0.31%.

Q: And the Activity (Eca-109/VCR [20])?
A: The Activity was 0.082%.

Q: And the Activity (Eca-109/VCR [21])?
A: The Activity was “inactive”.

Q: What about the Activity (Eca-109/VCR [22]) of the same molecule?
A: The Activity was 0.064%.

Q: What about the “Ratio IC50” value [23] of the same molecule?
A: Its value is 139.7.

Q: What about the inhibition (Eca-109/VCR [24]) of the same molecule?
A: The inhibition was “inactive”.

Q: What about the Activity (Eca-109/VCR [25]) of the same molecule?
A: The Activity was 4.28%.

Q: What about the “Ratio IC50” value [26] of the same molecule?
A: The value was 1.4.

Q: What about the Activity (Eca-109/VCR [27]) of the same molecule?
A: The Activity was 1.27%.

Q: What about the “Ratio IC50” value [28] of the same molecule?
A: The value was 12.

Q: And the Activity (Eca-109/VCR [29])?
A: The Activity was 7.54%.
